# Results reported in US6743794B2, “Methods and compounds for inhibiting MRP1” (Eli Lilly and Company, priority 1999, dated 2004).
# How the values were obtained:
# [1] = target: T1, MRP1 (Homo sapiens, UniProt P33527); test: Assay for reversal of MRP1-mediated doxorubicin resistance (HL60/Adr cells, alamarBlue viability); type: cell-based; conditions: oncolytic alone at the tested concentration, no test compound
# T1 construct: HL60/Adr and HL60/Vinc are continuous cell lines, which were selected for doxorubicin and vincristine resistance respectively; endogenous in cells; host or cells: HL60/Adr (doxorubicin-selected HL60)
# T1 sequence (P33527 whole entry): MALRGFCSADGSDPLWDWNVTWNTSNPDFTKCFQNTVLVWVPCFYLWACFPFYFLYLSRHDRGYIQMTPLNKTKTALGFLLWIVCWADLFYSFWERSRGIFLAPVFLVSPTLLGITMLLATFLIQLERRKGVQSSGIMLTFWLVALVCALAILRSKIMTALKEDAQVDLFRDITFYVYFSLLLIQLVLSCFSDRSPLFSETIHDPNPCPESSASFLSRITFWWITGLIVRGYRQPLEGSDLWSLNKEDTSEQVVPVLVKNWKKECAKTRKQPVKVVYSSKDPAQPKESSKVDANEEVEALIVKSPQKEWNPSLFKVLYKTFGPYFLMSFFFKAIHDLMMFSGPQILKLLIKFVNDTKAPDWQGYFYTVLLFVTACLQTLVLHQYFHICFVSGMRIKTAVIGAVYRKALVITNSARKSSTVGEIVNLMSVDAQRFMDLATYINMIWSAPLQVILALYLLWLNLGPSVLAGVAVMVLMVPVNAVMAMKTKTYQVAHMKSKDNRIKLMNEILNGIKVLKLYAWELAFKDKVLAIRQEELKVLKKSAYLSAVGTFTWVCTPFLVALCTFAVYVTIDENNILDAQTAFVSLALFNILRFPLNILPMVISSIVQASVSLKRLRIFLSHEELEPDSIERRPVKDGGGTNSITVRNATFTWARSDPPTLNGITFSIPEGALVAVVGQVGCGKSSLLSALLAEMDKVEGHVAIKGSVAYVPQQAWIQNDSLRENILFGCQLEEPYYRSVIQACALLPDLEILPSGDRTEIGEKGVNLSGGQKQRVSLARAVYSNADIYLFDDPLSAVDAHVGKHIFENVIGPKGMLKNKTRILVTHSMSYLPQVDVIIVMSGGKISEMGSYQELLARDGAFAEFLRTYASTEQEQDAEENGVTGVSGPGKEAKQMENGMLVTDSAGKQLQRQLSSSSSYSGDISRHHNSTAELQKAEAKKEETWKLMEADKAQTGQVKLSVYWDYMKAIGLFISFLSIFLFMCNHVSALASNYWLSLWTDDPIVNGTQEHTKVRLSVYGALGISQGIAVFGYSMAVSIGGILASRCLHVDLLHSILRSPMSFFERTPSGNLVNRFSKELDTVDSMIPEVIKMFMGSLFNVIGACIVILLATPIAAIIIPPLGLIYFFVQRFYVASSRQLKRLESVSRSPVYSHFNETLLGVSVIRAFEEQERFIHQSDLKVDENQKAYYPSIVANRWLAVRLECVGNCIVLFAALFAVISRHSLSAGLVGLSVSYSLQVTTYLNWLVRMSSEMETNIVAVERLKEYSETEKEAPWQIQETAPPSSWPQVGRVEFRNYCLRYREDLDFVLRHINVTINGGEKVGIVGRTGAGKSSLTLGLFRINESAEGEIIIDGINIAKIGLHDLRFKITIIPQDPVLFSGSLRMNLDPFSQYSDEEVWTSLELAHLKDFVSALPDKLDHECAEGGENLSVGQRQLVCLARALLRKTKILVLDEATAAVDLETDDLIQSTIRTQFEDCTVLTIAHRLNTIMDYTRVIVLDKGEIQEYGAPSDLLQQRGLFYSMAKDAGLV
# Method: (§1) The biological activity of the compounds of the present invention was evaluated employing an initial screening assay which rapidly and accurately measured the activity of the tested compound in inhibiting MRP1 or MDR1. Assays useful for evaluating this reversing capability are well known in the art. See, e.g., T. McGrath, et al., Biochemical Pharmacology, 38:3611, 1989; D. Marquardt and M. S. Center, Cancer Research, 52:3157, 1992; D. Marquardt, et al., Cancer Research, 50:1426, 1990; and Cole, et. al., Cancer Research, 54: 5902-5910, 1994.
# (§2) Assay for Reversal of MRP1-Mediated Doxorubicin Resistance and MDR1-Mediated Vincristine Resistance
# (§3) HL60/Adr and HL60/Vinc are continuous cell lines, which were selected for doxorubicin and vincristine resistance respectively by culturing HL60, a human acute myeloblastic leukemia cell line, in increasing concentrations of doxorubicin or vincristine until a highly resistant variant was attained.
# (§4) HL60/Adr and HL60/Vinc cells were grown in RPMI 1640 (Gibco) containing 10% fetal bovine serum (FBS) and 50 μg/ml GENTAMICIN™ (Sigma). Cells were harvested; washed twice with assay medium (same as culture media); counted; and diluted to 1×10^5 cells/ml in assay medium. One hundred microliters of cells were aliquoted into wells of a 96 well tissue culture plate. […]
# [2] = target: T2, MDR1 (Homo sapiens, UniProt P08183); test: Assay for reversal of MDR1-mediated vincristine resistance (HL60/Vinc cells, alamarBlue viability); type: cell-based; conditions: oncolytic alone at the tested concentration, no test compound
# T2 construct: HL60/Adr and HL60/Vinc are continuous cell lines, which were selected for doxorubicin and vincristine resistance respectively; endogenous in cells; host or cells: HL60/Vinc (vincristine-selected HL60)
# T2 sequence (P08183 whole entry): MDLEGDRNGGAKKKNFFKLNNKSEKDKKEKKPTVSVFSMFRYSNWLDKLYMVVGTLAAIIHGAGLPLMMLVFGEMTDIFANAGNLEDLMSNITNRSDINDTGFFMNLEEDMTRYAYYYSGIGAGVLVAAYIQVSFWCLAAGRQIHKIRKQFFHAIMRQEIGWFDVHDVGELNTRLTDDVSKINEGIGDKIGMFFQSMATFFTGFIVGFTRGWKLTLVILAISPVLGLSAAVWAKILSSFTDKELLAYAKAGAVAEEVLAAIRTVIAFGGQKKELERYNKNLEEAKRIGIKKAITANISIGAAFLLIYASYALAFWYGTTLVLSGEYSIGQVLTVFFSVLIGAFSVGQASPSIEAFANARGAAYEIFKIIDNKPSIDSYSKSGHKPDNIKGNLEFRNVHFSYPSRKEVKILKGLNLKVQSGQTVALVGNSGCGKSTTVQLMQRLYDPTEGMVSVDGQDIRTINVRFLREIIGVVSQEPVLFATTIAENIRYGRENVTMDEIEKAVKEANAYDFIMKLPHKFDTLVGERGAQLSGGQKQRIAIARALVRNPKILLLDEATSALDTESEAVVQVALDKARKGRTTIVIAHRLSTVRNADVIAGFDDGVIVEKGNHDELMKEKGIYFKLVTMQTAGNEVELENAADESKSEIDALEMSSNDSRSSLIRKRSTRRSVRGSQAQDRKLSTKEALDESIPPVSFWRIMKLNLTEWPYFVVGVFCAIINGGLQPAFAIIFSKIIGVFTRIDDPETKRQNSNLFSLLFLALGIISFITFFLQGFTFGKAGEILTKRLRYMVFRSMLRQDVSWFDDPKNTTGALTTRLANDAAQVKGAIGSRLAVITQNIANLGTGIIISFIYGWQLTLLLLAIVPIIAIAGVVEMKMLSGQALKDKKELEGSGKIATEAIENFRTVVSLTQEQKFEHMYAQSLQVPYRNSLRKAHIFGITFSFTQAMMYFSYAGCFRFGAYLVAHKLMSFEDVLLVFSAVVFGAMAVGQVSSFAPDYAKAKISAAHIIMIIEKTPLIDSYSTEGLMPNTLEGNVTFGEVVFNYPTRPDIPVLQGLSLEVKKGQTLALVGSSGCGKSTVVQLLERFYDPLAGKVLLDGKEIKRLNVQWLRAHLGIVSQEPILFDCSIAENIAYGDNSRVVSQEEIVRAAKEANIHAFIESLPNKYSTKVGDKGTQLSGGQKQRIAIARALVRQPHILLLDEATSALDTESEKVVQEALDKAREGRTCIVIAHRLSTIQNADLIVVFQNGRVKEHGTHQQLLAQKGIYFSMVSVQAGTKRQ
# Method: as §1, §2, §3, §4
smiles,measurement,setting,value
COc1cccc2c1C(=O)c1c(O)c3c(c(O)c1C2=O)C[C@@](O)(C(=O)CO)C[C@@H]3O[C@H]1C[C@H](N)[C@H](O)[C@H](C)O1 [doxorubicin],inhibition of cell growth by the oncolytic alone,[1],minimally inhibits
same,inhibition of cell growth by the oncolytic alone,[2],minimally inhibits
